From patent US20010011063A1, “Substituted 2,4-diamino-1,3,5-triazines, processes for their preparation and their use as herbicides and plant growth regulators” (priority 1999, published 2001)

Key:
Type in all cases: in vivo
[1] = tested on: Stellaria media, Lolium multiflorum, Amaranthus retroflexus, Sinapis alba, Avena sativa and Settaria viridis; experiment: Pre-emergence effect on weeds (greenhouse pot test); settings: application rate of 1 kg or less of active substance per hectare; visually scored after 3 to 4 weeks by comparison with untreated controls
Source text: Seeds or rhizome pieces of mono and dicotyledonous weed plants are placed in sandy loam soil in plastic pots and covered with soil. The compounds according to the invention which are formulated in the form of wettable powders or emulsion concentrates are then applied to the soil cover in the form of aqueous suspensions or emulsions at an application rate of 600 to 800 l of water/ha (converted), in various dosages.

[2] = tested on: Sinapis alba, Echinochloa crus-galli, Lolium multiforum, Stellaria media, Cyperus iria, Amaranthus retroflexus, Settaria viridis and Avena sativa; experiment: Post-emergence effect on weeds (greenhouse pot test); settings: application rate of 1 kg or less of active substance per hectare; treated at the three-leaf stage; scored visually after about 3 to 4 weeks vs untreated controls
Procedure: Seeds or rhizome pieces of mono- and dicotyledonous weeds are placed in sandy loam soil in plastic pots, covered with soil and grown in a greenhouse under good growth conditions. Three weeks after sowing, the test plants are treated at the three-leaf stage. The compounds according to the invention, formulated as wettable powders or emulsion concentrates, are sprayed, at various dosages, onto the green parts of the plants at an application rate of 600 to 800 l of water/ha (converted). After the test plants had remained in the greenhouse for about 3 to 4 weeks under optimum growth conditions, the effect of the preparations is scored visually by comparison with untreated controls. The agents according to the invention also have good herbicidal activity post-emergence against a broad spectrum of economically important weed grasses and broad-leaved weeds.

[3] = tested on: Cyperus monti, Echinochloa crus-galli and Sagitaria pygmaea; experiment: Action on harmful plants in rice (paddy rice conditions); settings: poured into the dammed water, visual scoring about three weeks after application; note: test concentration or dose not given here
Source text: Transplanted and sown rice and also typical rice weeds (gramineous and broad-leaved) are cultivated in closed plastic pots in a greenhouse to the three-leaf stage (Echinochloa crus-galli 1.5-leaf) under paddy rice conditions (height of water: 2-3 cm). This is followed by treatment with the compounds according to the invention. For this purpose, the formulated active compounds are suspended, dissolved or emulsified in water and applied by pouring them into the dammed water around the test plants in different dosages.

Row | SMILES | herbicidal activity pre-emergence against harmful plants [1] | herbicidal activity post-emergence against harmful plants [2] | herbicidal activity against harmful plants which are typical for rice crops [3]
1 | CC(C)(F)c1nc(N)nc(NC(CCc2ccccc2)CC2CC2(F)F)n1 (mixture of isomers) [Example 1-157] | very good herbicidal activity | very good herbicidal activity | very good herbicidal activity
2 | CC(C)c1nc(N)nc(NC(CCc2ccccc2)CC2CC2(F)F)n1 (mixture of isomers) [Example 1-158] | very good herbicidal activity | very good herbicidal activity | very good herbicidal activity
3 | CC(C)(F)c1nc(N)nc(NC(CCc2cccc(F)c2)C2CC2(Cl)Cl)n1 (mixture of isomers) [Example 2-6] |  | very good herbicidal activity | 
4 | CC(C)(F)c1nc(N)nc(NC(CCc2ccccc2)CC2CC2(F)F)n1 (mixture of isomers) [Example 2-157] | very good herbicidal activity | very good herbicidal activity | very good herbicidal activity
5 | CC(C)c1nc(N)nc(NC(CCc2ccccc2)CC2CC2(F)F)n1 (mixture of isomers) [Example 2-158] | very good herbicidal activity | very good herbicidal activity | very good herbicidal activity
6 | CC(F)c1nc(N)nc(NC(CCCc2ccccc2)C2CC2)n1 (mixture of isomers) [Example 3-3] | very good herbicidal activity | very good herbicidal activity | very good herbicidal activity
7 | CC(F)c1nc(N)nc(NC(CCCc2ccccc2)C2CC2)n1 (mixture of isomers) [Example 4-3] | very good herbicidal activity | very good herbicidal activity | very good herbicidal activity
8 | CC(C)c1nc(N)nc(N[C@@H](CCc2ccccc2)C2CCC2)n1 [Example 1-14] | very good herbicidal activity | very good herbicidal activity | very good herbicidal activity
9 | CC(C)(F)c1nc(N)nc(N[C@@H](CCc2ccccc2)C2CCC2)n1 [Example 1-15] | very good herbicidal activity | very good herbicidal activity | very good herbicidal activity
10 | Cc1nc(N)nc(N[C@@H](CCc2ccccc2)C2CCC2)n1 [Example 1-16] | very good herbicidal activity | very good herbicidal activity | very good herbicidal activity
11 | CC(C)c1nc(N)nc(N[C@@H](CCc2cccc(Cl)c2)C2CCC2)n1 [Example 1-23] | very good herbicidal activity | very good herbicidal activity | very good herbicidal activity
12 | CC(C)(F)c1nc(N)nc(N[C@@H](CCc2cccc(Cl)c2)C2CCC2)n1 [Example 1-24] | very good herbicidal activity | very good herbicidal activity | very good herbicidal activity
13 | Cc1cccc(CC[C@H](Nc2nc(N)nc(C(C)C)n2)C2CCC2)c1 [Example 1-27] | very good herbicidal activity | very good herbicidal activity | very good herbicidal activity
14 | Cc1cccc(CC[C@H](Nc2nc(N)nc(C(C)(C)F)n2)C2CCC2)c1 [Example 1-28] | very good herbicidal activity | very good herbicidal activity | very good herbicidal activity
15 | CC(C)c1nc(N)nc(N[C@@H](CCc2ccccc2)CC2CC2)n1 [Example 1-144] | very good herbicidal activity | very good herbicidal activity | very good herbicidal activity
16 | CC(C)(F)c1nc(N)nc(N[C@@H](CCc2ccccc2)CC2CC2)n1 [Example 1-145] | very good herbicidal activity | very good herbicidal activity | very good herbicidal activity
17 | CC(C)c1nc(N)nc(N[C@H](CCc2ccccc2)C2CCC2)n1 [Example 2-14] | very good herbicidal activity | very good herbicidal activity | very good herbicidal activity
18 | CC(C)(F)c1nc(N)nc(N[C@H](CCc2ccccc2)C2CCC2)n1 [Example 2-15, 2-Amino-4-(1-fluoro-1-methylethyl)-6-[(1 R)-3-phenyl-1-cyclobutyl-1-propylamino]-1,3,5-triazine] | very good herbicidal activity | very good herbicidal activity | very good herbicidal activity
19 | Cc1nc(N)nc(N[C@H](CCc2ccccc2)C2CCC2)n1 [Example 2-16] | very good herbicidal activity |  | very good herbicidal activity
20 | CC(C)c1nc(N)nc(N[C@H](CCc2cccc(Cl)c2)C2CCC2)n1 [Example 2-23] | very good herbicidal activity | very good herbicidal activity | very good herbicidal activity
21 | CC(C)(F)c1nc(N)nc(N[C@H](CCc2cccc(Cl)c2)C2CCC2)n1 [Example 2-24] | very good herbicidal activity | very good herbicidal activity | very good herbicidal activity
22 | Cc1cccc(CC[C@@H](Nc2nc(N)nc(C(C)C)n2)C2CCC2)c1 [Example 2-27] | very good herbicidal activity | very good herbicidal activity | very good herbicidal activity
23 | Cc1cccc(CC[C@@H](Nc2nc(N)nc(C(C)(C)F)n2)C2CCC2)c1 [Example 2-28] | very good herbicidal activity | very good herbicidal activity | very good herbicidal activity
24 | CC(C)c1nc(N)nc(N[C@H](CCc2ccccc2)CC2CC2)n1 [Example 2-144] | very good herbicidal activity | very good herbicidal activity | very good herbicidal activity
25 | CC(C)(F)c1nc(N)nc(N[C@H](CCc2ccccc2)CC2CC2)n1 [Example 2-145] | very good herbicidal activity | very good herbicidal activity | very good herbicidal activity
26 | Nc1nc(N[C@@H](CCCc2ccc(Cl)cc2Cl)C2CC2)nc(C(F)(F)F)n1 [Example 3-6] | very good herbicidal activity | very good herbicidal activity | very good herbicidal activity
27 | Cc1nc(N)nc(N[C@@H](CCCc2ccccc2)C2CC2)n1 [Example 3-8] | very good herbicidal activity | very good herbicidal activity | very good herbicidal activity
28 | CCc1nc(N)nc(N[C@@H](CCCc2ccccc2)C2CC2)n1 [Example 3-9] | very good herbicidal activity | very good herbicidal activity | very good herbicidal activity
